Measured values published in patent EP0171342A1, “Substituted 2-(1-amino-akylidenyl)1,3-indane diones, process for their preparation and their therapeutical use” (priority 1984, dated 1986).
≈ marks a conversion by molar mass, not a printed value. Like-named read-outs stand apart in the source and are kept apart here.

Assays:
souris [1] = test: Acute toxicity (mortality, LD50) in mice; format: in vivo; settings: mouse
[2] = test system: rat soumis à une surcharge hydrique; test: Diuretic activity in rats given a water overload, oral; format: in vivo; settings: rat, water overload, oral; for response vs control in vivo at 20 mg/kg: read-out: facteur multipliant l'excrétion urinaire du sodium
Method: L'activité diurétique a été déterminée sur plusieurs modèles expérimentaux. Chez le rat soumis à une surcharge hydrique, administrés par voie orale à la dose de 20 mg/kg, le COR3760, le COR3789, le COR3792, le COR4002, le COR4003, le COR4009, le COR4010, le COR4012 et le COR4014 multiplient l'excrétion urinaire du sodium par respectivement un facteur 2,9 - 3,1 - 5,9 - 2,6 - 7,2 - 3,5 - 3,8 - 2,9 - 2,4. Administrés à la dose de 10 mg/kg, dans les mêmes conditions, les COR3760, COR3789, COR3792, COR4003 et COR4010 multiplient l'excrétion sodique par respectivement 2,3 - 2,9 - 2,8 - 2,4 et 2,5. La spironolactone multiplie quant à elle l'excrétion sodique d'un facteur 3,6 à la dose de 20 mg/kg. Administré à la dose de 5 mg/kg dans les mêmes conditions, le COR3792 multiplie l'excrétion sodique par 3,3. Administré par voie orale chez le rat ou la souris soumis à une surcharge saline, le COR3760 augmente l'excrétion urinaire volumétrique mesurée à la sixième heure de respectivement 49, 119 et 134% chez la souris et 28, 84 et 116% chez le rat après administration de 10, 20, et 40 mg/kg. Le COR3760 a été administré par voie orale au rat soumis à une surcharge hydrique et l'excrétion urinaire volumétrique, le sodium et le potassium excrétés ont été mesurés sur une période de 6 heures; ces paramètres ont varié de respectivement +17%, +102%, +165% à 10 mg/kg, +19%, +147%, +180% à 20 mg/kg et +36%, +415% et +239% à 40 mg/kg; le rapport Na/K passe de 0,56 chez les animaux témoins à 0,4 à 10 mg/kg, 0,49 à 20 mg/kg et 0, 8 à 40 mg/ kg. Au cours d'une seconde expérimentation, le COR3760 a entrainé des variations de +19%, +157%, +70% à 40 mg/kg, +19%, +319%, +90% à 60 mg/kg et +29%, +472% et +77% à 80 mg/kg; le rapport Na/K passe de 0,59 chez les animaux témoins à 0,88 à 40, 1,15 à 60 et 1,88 à 80 mg/kg.

[3] = test system: oedème induit par l'injection intraplantaire de carragénine chez le rat; test: Anti-inflammatory activity: carrageenan paw oedema in rats; format: in vivo; settings: oral 1 h before carrageenan, measured 3 h after
Method: L'activité antiinflammatoire a été déterminée chez le rat par la mesure de l'inhibition de l'oedème induit par l'injection intraplantaire de 0,1 ml d'une suspension à 1% de carragénine chez le rat. Les produits à tester sont administrés par voie orale lh avant l'injection de carragénine et la mesure est réalisée 3h après cette injection. Les COR3789, COR3792, COR4003, COR4008 et COR4010 administrés à 10b mg/kg entrainent respectivement 43, 42, 41, 38 et 39% d'inhibition. Administré à 200 mg/kg, le COR3773 entraine 53% d'inhibition. L'aspirine administrée dans les mêmes conditions à 150 mg/kg entraine 40% d'inhibition de l'oedème.

[4] = test system: poumon de cobaye isolé perfusé; test: Bronchodilator activity: isolated perfused guinea pig lung contracted by methacholine; settings: flow of Tyrode solution, lung contracted by 0,05 microg/ml methacholine; read-out: concentration qui augmente ce débit de 50%
Text: L'activité bronchodilatatrice a été déterminée in vitro par la mesure du débit d'une solution de Tyrode à travers un poumon de cobaye isolé perfusé, contracté par l'addition au fluide de perfusion de 0,05 microg/ml de méthacholine. Les COR3760, COR3789, COR3792, COR4003, COR4008, COR4010 et COR4014 utilisés respectivement aux concentrations de 50, 50, 100, 10, 50, 50 et 10 microg/ml augmentent ce débit de 50%. L'aminophylline entraine cette même activité à la concentration de 100 microg/ml.

[5] = test system: segments d'iléon de cobaye isolés; test: Anticholinergic activity: acetylcholine-induced contractions of isolated guinea pig ileum; settings: Cavia porcellus; contractions induced by 0,1 microg/ml acetylcholine; read-out: concentration qui inhibe ces contractions de 80%
Text: L'activité anticholinergique a été appréciée par la mesure des contractions induites par 0,1 microg/ml d'acétylcholine sur des segments d'iléon de cobaye isolés. Les COR3760, COR3789, COR3792, COR4003, COR4008, COR4010, COR4014 utilisés respectivement aux concentrations de 50, 25, 25, 50, 25, 10, 25 microg/ml inhibent ces contractions de 80%.

[6] = test system: oreillette gauche de cobaye; test: Calcium antagonist activity: electrically stimulated guinea pig left atrium; settings: 150 beats/min, low-calcium (0,6 mM) Tyrode solution; read-out: concentration qui inhibe de 50% l'augmentation de la force de contraction induite par l'addition de 0,6 mM de calcium
Method: L'activité anticalcique a été déterminée in vitro sur deux modèles expérimentaux.
Sur oreillette gauche de cobaye stimulée électriquement à 150 battements/mn dans une solution de Tyrode pauvre en calcium (0,6 mM), les COR3789, COR3792, COR4009, COR4010 et COR4011 employés respectivement à 25, 100, 50, 10 et 25 microg/ml inhibent de 50% l'augmentation de la force de contraction induite par l'addition de 0,6 mM de calcium.

[7] = test system: strips de veines mésentériques porte de rats normotendus; test: Calcium antagonist activity: spontaneous contractions of rat portal mesenteric vein strips; settings: 10 microg/ml
iléon de cobaye = test: Spasmolytic activity: guinea pig ileum contractions induced by transmural stimulation; settings: 2 microg/ml, oxygenated Krebs solution at 32°C; for inhibition at 2 µg/mL: read-out: inhibition de ces contractions
Method: L'activité spasmolytique a été déterminée in vitro par la mesure de l'effet du produit à tester sur les contractions de l'iléon de cobaye induites par stimulation transmurale dans une solution de Krebs oxygénée à 32°C. Le COR4010 et le COR3773 utilisés à la concentration de 2 microg/ml entrainent 50% d'inhibition de ces contractions.

[8] = test system: rat Wistar soumis à une surcharge saline; test: Diuretic activity in selected Wistar rats given a saline overload (modified Wiebelhaus test); format: in vivo
Method: L'activité diurétique des produits selon l'invention a été également déterminée chez le rat Wistar soumis à une surcharge saline selon une modification du test décrit par Wiebelhaus et coll., Fed. Proc., 1960, 19, 364, en procédant à une sélection des animaux. A la dose de 20 mg/kg, les COR4003, COR4008, COR4009, COR4010, COR4011, COR4012, COR4014, COR4016, COR4021, COR4025 augmentent l'excrétion urinaire volumétrique mesurée au bout de 6 heures de respectivement 56, 54, 65, 95, 73, 54, 33, 40, 99 et 92 %. L'excrétion urinaire du sodium augmente de respectivement 56, 24, 42, 59, 43, 33, 29, 43, 31, 83, 26, 99, 40 % toujours à cette dose pour les COR4003, COR4008, COR4009, COR4010, COR4011, COR4012, COR4014, COR4016, COR4017, COR4021, COR4023, COR4025 et COR4026. Le rapport Na/K demeure la plupart du temps inchangé. Testé dans les mêmes conditions le furosémide, administré à la dose de 20 mg/kg entraine 63% d'augmentation de l'excrétion urinaire volumétrique et 53% d'augmentation de l'excrétion urinaire du sodium.

souris [9] = test: Antidepressant activity: inhibition of reserpine-induced ptosis in mice; format: in vivo; settings: mouse, oral 50 mg/kg 90 min before reserpine 5 mg/kg i.p.; index 0 (maximum ptosis) to 6 (no ptosis)
Method: L'activité antidépressive a été déterminée dans le test de potentialisation de la toxicité de la yohimbine et dans le test de l'inhibition du ptosis induit par la réserpine.
On injecte par voie sous cutanée à des souris, lh avant l'administration par voie orale du produit à tester, une dose non léthale de yohimbine soit 15 mg/kg. Le COR3760 administré à la dose de 100 mg/kg entraine 80% de mortalité dans ces conditions. Des souris reçoivent par voie orale le produit à tester 90 mn avant l'injection par voie intrapéritonéale de 5 mg/kg de réserpine solubilisée. On cote le ptosis selon un index allant de 0 à 6, la cote 0 correspondant à un ptosis maximum et la cote 6 à l'absence de ptosis. Les COR3760 et COR4011 conduisent dans les conditions de l'expérience à un ptosis coté à 4 pour une dose de respectivement 200 et 50 mg/kg.

[10] = molecular target: oreillettes droites de cobaye (Cavia porcellus, UniProt P47747); test: Anti-H2 activity: histamine-induced chronotropic effect on unstimulated guinea pig right atria
Sequence of oreillettes droites de cobaye (P47747 whole entry): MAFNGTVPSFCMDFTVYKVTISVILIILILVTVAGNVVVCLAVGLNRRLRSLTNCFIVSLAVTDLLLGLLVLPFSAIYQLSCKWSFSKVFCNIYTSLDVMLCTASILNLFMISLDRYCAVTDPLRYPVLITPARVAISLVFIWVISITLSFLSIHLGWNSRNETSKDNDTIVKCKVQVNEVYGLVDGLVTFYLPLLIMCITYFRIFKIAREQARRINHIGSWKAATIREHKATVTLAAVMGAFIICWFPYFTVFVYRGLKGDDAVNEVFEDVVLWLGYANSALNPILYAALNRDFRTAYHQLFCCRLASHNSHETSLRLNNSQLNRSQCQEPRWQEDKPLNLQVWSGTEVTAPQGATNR

souris [11] = test: Anticonvulsant activity: maximal electroshock convulsions in mice; format: in vivo; settings: mouse, oral, 100 mg/kg, one hour after administration
Text: L'activité anticonvulsivante est appréciée dans le test de la prévention des convulsions induites par des électrochocs d'intensité maximale.

souris [12] = test: Anticonvulsant activity: bicuculline-induced convulsions in mice; format: in vivo; settings: mouse, i.p., 100 mg/kg
Method: L'activité anticonvulsivante est également déterminée dans le test des inhibitions des convulsions induites par la bicuculline. Des souris reçoivent par voie intrapéritonéale le produit à tester, puis 30 mn et 5 heures plus tard, deux injections séparées de 0,5 mg de bicuculline. […] Les résultats de ce test sont le reflet d'une activité gabaergique directe.

[13] = 6 h, read-out: augmentation de l'excrétion urinaire volumétrique mesurée au bout de 6 heures
[14] = read-out: augmentation de l'excrétion urinaire du sodium

Compound | mortalité (souris [1]; intraperitoneal, 200 mg/kg) | mortalité (souris [1]; oral, 300 mg/kg) | facteur multipliant l'excrétion sodique ([2]; 10 mg/kg) | response vs control in vivo at 20 mg/kg [2] | inhibition de l'oedème ([3]; dose 10b mg/kg [sic]) | EC50 [4] | IC80 [5] | IC50 [6] | inhibition de l'augmentation, induite par le calcium, des contractions spontanées [7] | further results
CC(NC(C)C)=C1C(=O)c2ccccc2C1=O [COR3792, (Isopropylamino-1 éthylidène)-2 indanedione-1,3] | aucune mortalité | aucune mortalité | 2,8 | 590% | 42% | 100 µg/mL (≈ 436 µM) | 25 µg/mL (≈ 109 µM) | 100 µg/mL (≈ 436 µM) |  | facteur multipliant l'excrétion sodique ([2]; 5 mg/kg): 3,3
CCNC(C)=C1C(=O)c2ccccc2C1=O [COR3789, (Ethylamino-1 éthylidène)-2 indanedione-1,3] | aucune mortalité | aucune mortalité | 2,9 | 310% | 43% | 50 µg/mL (≈ 232 µM) | 25 µg/mL (≈ 116 µM) | 25 µg/mL (≈ 116 µM) | inhibent l'augmentation | 
CNC(C)=C1C(=O)c2ccc(Cl)cc2C1=O [COR3773, Chloro-5 (méthylamino-1 éthylidène)-2 indanedione-1,3] | aucune mortalité | aucune mortalité |  |  |  |  |  |  |  | inhibition at 2 µg/mL (iléon de cobaye): 50%; inhibition de l'oedème ([3]; 200 mg/kg): 53%
COc1ccc(Cc2nccc3cc(OC)c(OC)cc23)cc1OC [papavérine, reference compound] |  |  |  |  |  |  |  |  |  | inhibition de ces contractions (iléon de cobaye): la même activité
CC(NCC1CC1)=C1C(=O)c2ccccc2C1=O [COR4011, (Cyclopropylméthylamino-1 éthylidényl)-2 indanedione-1,3] | aucune mortalité | aucune mortalité |  |  |  |  |  | 25 µg/mL (≈ 104 µM) | inhibent l'augmentation | change in vivo at 20 mg/kg [8, 13]: 73%; change in vivo at 20 mg/kg [8, 14]: 43%; ptosis coté (souris [9]): 4; effet chronotrope négatif intrinsèque ([10]; at the concentration inhibiting the histamine effect by 50 % (COR4003 100, COR4011 50 microg/ml)): ne présentant pas d'effet chronotrope négatif intrinsèque; IC50 ([10]; read-out: concentration qui inhibe de 50 % cet effet chronotrope, chronotropic effect induced by 5 microg/ml histamine): 207 µM
CCCCNC(C)=C1C(=O)c2ccccc2C1=O [COR4010, (Butylamino-1 éthylidényl)-2 indanedione-1,3] | aucune mortalité | aucune mortalité | 2,5 | 380% | 39% | 50 µg/mL (≈ 206 µM) | 10 µg/mL (≈ 41.1 µM) | 10 µg/mL (≈ 41.1 µM) | inhibent l'augmentation | change in vivo at 20 mg/kg [8, 13]: 95%; change in vivo at 20 mg/kg [8, 14]: 59%; inhibition at 2 µg/mL (iléon de cobaye): 50%
CCCC(C)(COC(N)=O)COC(N)=O [méprobamate, reference compound] |  |  |  |  |  |  |  |  |  | prévention des convulsions induites par des électrochocs d'intensité maximale (souris [11]): on n'observe plus de convulsions
CCCC(CCC)C(=O)O [valproate de sodium, reference compound] |  |  |  |  |  |  |  |  |  | inhibition des convulsions induites par la bicuculline (souris [12]; first bicuculline injection (30 min later)): inhibe les convulsions induites par la première injection; inhibition des convulsions induites par la bicuculline (souris [12]; second bicuculline injection (5 hours later)): sans inhiber celles induites par la deuxième
